Legend:
[1] = molecular target: ATP-binding cassette sub-family C member 2 (Homo sapiens, UniProt Q92887); assay: Inhibition of human MRP2-mediated estradiol-17-beta-glucuronide transport in Sf9 cells inverted membrane vesicles
[2] = molecular target: MRP2 (ABCC2) (Homo sapiens, UniProt Q92887); assay: in vitro;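 further: Inside-out membrane vesicles from Sf9 insect cells expressing human MRP2, measuring uptake of the estradiol glucuronide substrate, expressed as percent of untreated control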
Description: Effect on human MRP2-mediated estradiol-17-beta-glucuronide transport in Sf9 cells inverted membrane vesicles relative to control

[3] = probe estradiol-17-beta-glucuronide

Chain of MRP2 (ABCC2) (Q92887 whole entry): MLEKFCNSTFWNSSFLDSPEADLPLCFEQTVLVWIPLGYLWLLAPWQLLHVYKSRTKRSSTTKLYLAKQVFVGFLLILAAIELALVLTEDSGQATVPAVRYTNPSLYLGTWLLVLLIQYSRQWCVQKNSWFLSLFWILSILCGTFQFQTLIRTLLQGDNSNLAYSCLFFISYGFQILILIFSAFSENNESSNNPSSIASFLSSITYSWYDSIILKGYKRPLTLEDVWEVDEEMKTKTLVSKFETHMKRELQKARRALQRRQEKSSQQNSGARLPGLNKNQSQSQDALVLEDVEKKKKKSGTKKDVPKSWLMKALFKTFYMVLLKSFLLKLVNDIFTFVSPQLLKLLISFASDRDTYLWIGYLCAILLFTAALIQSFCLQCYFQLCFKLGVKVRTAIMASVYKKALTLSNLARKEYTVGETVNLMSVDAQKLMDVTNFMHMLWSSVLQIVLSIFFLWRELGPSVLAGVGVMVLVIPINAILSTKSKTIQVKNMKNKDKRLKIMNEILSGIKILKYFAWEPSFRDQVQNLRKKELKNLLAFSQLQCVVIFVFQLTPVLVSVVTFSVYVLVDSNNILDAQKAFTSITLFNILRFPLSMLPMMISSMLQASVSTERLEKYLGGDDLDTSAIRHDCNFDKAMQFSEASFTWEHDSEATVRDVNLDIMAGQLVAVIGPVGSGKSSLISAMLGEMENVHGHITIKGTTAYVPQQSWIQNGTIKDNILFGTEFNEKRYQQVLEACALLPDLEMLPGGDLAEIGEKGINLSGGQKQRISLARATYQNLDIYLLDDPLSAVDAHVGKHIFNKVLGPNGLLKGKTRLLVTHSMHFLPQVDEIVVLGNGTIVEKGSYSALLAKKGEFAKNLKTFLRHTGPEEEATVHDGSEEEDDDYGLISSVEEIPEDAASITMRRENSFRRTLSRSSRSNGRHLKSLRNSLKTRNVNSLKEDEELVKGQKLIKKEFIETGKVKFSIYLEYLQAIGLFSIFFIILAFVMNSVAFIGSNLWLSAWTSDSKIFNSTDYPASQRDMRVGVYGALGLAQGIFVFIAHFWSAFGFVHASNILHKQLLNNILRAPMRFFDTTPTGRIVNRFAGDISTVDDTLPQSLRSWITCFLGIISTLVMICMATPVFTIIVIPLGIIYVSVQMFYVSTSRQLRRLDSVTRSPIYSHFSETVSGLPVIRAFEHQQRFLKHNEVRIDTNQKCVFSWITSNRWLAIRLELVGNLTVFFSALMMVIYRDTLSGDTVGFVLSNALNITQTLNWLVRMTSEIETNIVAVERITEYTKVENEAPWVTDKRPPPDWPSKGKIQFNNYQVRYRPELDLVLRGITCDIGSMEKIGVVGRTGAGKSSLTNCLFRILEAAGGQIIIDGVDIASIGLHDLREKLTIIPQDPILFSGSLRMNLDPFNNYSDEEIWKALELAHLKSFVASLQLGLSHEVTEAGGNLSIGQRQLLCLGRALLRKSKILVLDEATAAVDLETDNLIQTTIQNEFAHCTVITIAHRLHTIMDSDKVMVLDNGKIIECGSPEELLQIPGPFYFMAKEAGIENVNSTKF
Chain of ATP-binding cassette sub-family C member 2 (Q92887 whole entry): as above

Structure (SMILES)	activity [2, 3]	further results
CN(C)C(=O)CCSC(SCCC(=O)O)c1cccc(/C=C/c2ccc3ccc(Cl)cc3n2)c1 (configuration not stated) [MK-571]		IC50 [1]: 10 µM; activity ([2]; sf9): 9%
O=C1C(CC[S+]([O-])c2ccccc2)C(=O)N(c2ccccc2)N1c1ccccc1 (configuration not stated) [SULFINPYRAZONE]	150%	
O=C1OC(c2ccc(O)c(S(=O)(=O)O)c2)(c2ccc(O)c(S(=O)(=O)O)c2)c2c(Br)c(Br)c(Br)c(Br)c21 [SULFOBROMOPHTHALEIN SODIUM]	5%	
CC/C(=C(\c1ccccc1)c1ccc(OCCN(C)C)cc1)c1ccccc1 [TAMOXIFEN]	8%	
C[C@H](CCC(=O)NCCS(=O)(=O)O)[C@H]1CC[C@H]2[C@@H]3CC[C@@H]4C[C@H](O)CC[C@]4(C)[C@H]3CC[C@]12C [TAUROLITHOCHOLIC ACID]	27%	
COc1cc2nc(N3CCN(C(=O)C4CCCO4)CC3)nc(N)c2cc1OC (configuration not stated) [TERAZOSIN]		activity ([2]; sf9): 94%
CC(C)(C)c1ccc(C(O)CCCN2CCC(C(O)(c3ccccc3)c3ccccc3)CC2)cc1 (configuration not stated) [TERFENADINE]		activity ([2]; sf9): 3%
C[C@]12CC[C@H]3[C@@H](CCC4=CC(=O)CC[C@@]43C)[C@@H]1CC[C@@H]2O [TESTOSTERONE]	140%	
CN(C)[C@@H]1C(O)=C(C(N)=O)C(=O)[C@@]2(O)C(O)=C3C(=O)c4c(O)cccc4[C@@](C)(O)[C@H]3C[C@@H]12 [TETRACYCLINE]		activity ([2]; sf9): 110%
CSc1ccc2c(c1)N(CCC1CCCCN1C)c1ccccc1S2 (configuration not stated) [THIORIDAZINE]	-1%	
CC(C)(C)NC[C@H](O)COc1nsnc1N1CCOCC1 [TIMOLOL]		activity ([2]; sf9): 91%
CCS(=O)(=O)CCn1c([N+](=O)[O-])cnc1C [TINIDAZOLE]	55%	
COc1cccc([C@@]2(O)CCCC[C@@H]2CN(C)C)c1 [TRAMADOL]	89%	
COc1cc(Cc2cnc(N)nc2N)cc(OC)c1OC [TRIMETHOPRIM]		activity ([2]; sf9): 107%
N[C@@H](Cc1c[nH]c2ccccc12)C(=O)O [TRYPTOPHAN]	66%	
CC(C)[C@H](N)C(=O)OCCOCn1cnc2c(=O)[nH]c(N)nc21 [VALACYCLOVIR]	94%	
CCCC(CCC)C(=O)O [VALPROIC ACID]	94%	
CC[C@]1(O)C[C@@H]2CN(CCc3c([nH]c4ccccc34)[C@@](C(=O)OC)(c3cc4c(cc3OC)N(C)[C@H]3[C@@](O)(C(=O)OC)[C@H](OC(C)=O)[C@]5(CC)C=CCN6CC[C@]43[C@@H]65)C2)C1 [VINBLASTINE]	78%	
CC[C@]1(O)C[C@H]2CN(CCc3c([nH]c4ccccc34)[C@@](C(=O)OC)(c3cc4c(cc3OC)N(C=O)[C@H]3[C@@](O)(C(=O)OC)[C@H](OC(C)=O)[C@]5(CC)C=CCN6CC[C@]43[C@@H]65)C2)C1 [VINCRISTINE]	82%	
CC(=O)CC(c1ccccc1)c1c(O)c2ccccc2oc1=O (configuration not stated) [WARFARIN]	136%	
Cc1cn([C@H]2C[C@H](N=[N+]=[N-])[C@@H](CO)O2)c(=O)[nH]c1=O [ZIDOVUDINE]	103%	
